Laboratory results reported in patent US20230414502A1, “Method for Preparing an Aqueous Nanocrystalline Suspension Containing Nanocrystals of Pharmaceutically Active Ingredient and a Combination of Stabilizers, Aqueous Nanocrystalline Suspension and Methods of Use Thereof” (Vysoka skola chemicko-technologicka v Praze, priority 2022, published 2023).
Entries after “also recorded” stand apart in the source; their conditions may differ.

Experiments:
[1] = literature values, cell line not given; read-out: IC50 documented for reference drugs; cited from earlier work
[2] = Microscopy of precipitation/recrystallization in DMEM + 10% FBS or PBS, no cells; format: physicochemical; details: for Recrystallization of API added from DMSO into DMEM + 10% FBS (microscopy): 1% DMSO, 100 μg/mL abiraterone acetate and telmisartan, 500 μg/mL others, no cells; for Solubility in DMSO (in words): 500 μg/mL at most 1% DMSO not reachable
macrophages J774A.1 = assay: Microscopy of samples incubated with macrophages; format: cell-based, mouse; details: for Recrystallization/precipitation of API added from DMSO, tested with J774A.1 (microscopy): 1% DMSO, 100 or 500 μg/mL, DMEM + 10% FBS
Description: For the purpose of the crystallization form DMSO solution study, the J774A.1 cells in the DMEM+10% FBS+1% AA medium were inoculated in a 96 well-plate with a glass-bottom (Cellvis, P96-1.5H-N) with a density of 2×10^4 cells/well and left to adhere overnight. Then, the medium was removed by aspiration, and nanocrystal samples pre-diluted in the fresh medium were added (from 500 μg/mL decreasing in half concentration trend; 90 μL/well). In some cases (abiraterone acetate, telmisartan), it was not possible to reach 500 μg/mL API concentration together with total DMSO content of maximum 1% (1% DMSO is top limit standard in biochemical testing considering the DMSO toxicity and effect on the cell viability and performance) and therefore these substances were tested at 100 μg/mL concentration. Here the great potential of nanocrystals is clearly presented, since the nanocrystal samples were possible to be prepared and tested at 500 μg/mL even in cases where the DMSO solvents would not be accepted for in vitro testing. If possible, all samples were tested at concentration 500 μg/mL (from nanocrystals or from DMSO stock solutions) and incubated in the well-plate for 18 h.

Recrystallization of API added from DMSO into DMEM + 10% FBS (microscopy) [2]	SMILES	IC50 [1] [µM]	further results
	N.N.[Cl][Pt][Cl] [cisplatin]	181	
	COc1cc(C2Oc3cc([C@H]4Oc5cc(O)cc(O)c5C(=O)[C@@H]4O)ccc3OC2CO)ccc1O (some centres unmarked) [Silybinin]	180	
	O=c1[nH]cc(F)c(=O)[nH]1 [5-fluorouracil]	39	
did not form macroscopic crystals	CCOc1nc2cccc(C(=O)OC(C)OC(=O)OC3CCCCC3)c2n1Cc1ccc(-c2ccccc2-c2nnn[nH]2)cc1 (centres unmarked) [Candesartan cilexetil]		
	COc1cc(/C=C/C(=O)CC(=O)/C=C/c2ccc(O)c(OC)c2)ccc1O [Curcumin]		Recrystallization/precipitation of API added from DMSO, tested with J774A.1 (microscopy) (macrophages J774A.1): most significant recrystallization/precipitation; also recorded: precipitation/recrystallization from DMSO occurred and was well detectable
	CC(C)(C)c1cc(C(C)(C)C)c(NC(=O)c2c[nH]c3ccccc3c2=O)cc1O [Ivacaftor]		Recrystallization/precipitation of API added from DMSO, tested with J774A.1 (microscopy) (macrophages J774A.1): most significant recrystallization/precipitation; also recorded: precipitation/recrystallization from DMSO occurred and was well detectable; Effect on J774A.1 cells, API added as DMSO solution (macrophages J774A.1; 8-125 μg/mL): causes cell death (membrane blobbing)
did not form macroscopic crystals	CCCc1nc2c(C)cc(-c3nc4ccccc4n3C)cc2n1Cc1ccc(-c2ccccc2C(=O)O)cc1 [Telmisartan]		Solubility in DMSO (in words) [2]: low solubility

SMILES	Recrystallization of API added from DMSO into DMEM + 10% FBS (microscopy) [2]	IC50 [1] [µM]	further results
CC(=O)O[C@H]1CC[C@@]2(C)C(=CC[C@@H]3[C@@H]2CC[C@]2(C)C(c4cccnc4)=CC[C@@H]32)C1 [Abiraterone acetate]	formation of both new crystals and solid amorphous phase occurs		Solubility in DMSO (in words) [2]: low solubility
